In data set [1] the test system is t-PA-induced lysis of whole blood clots. Briefly: Whole blood fibrinolysis assay (ROTEM, EXTEM with t-PA). The class given is cell-based, human. As to conditions: for IC50: Ly60, read-out: concentration resulting in 50% suppression of clot lysis (IC50, median [25%; 75% percentile]); for potency at inhibiting clot lysis relative to tranexamic acid: whole blood and plasma clot lysis, versus tranexamic acid. As for the experimental part: (§1) Venous blood was withdrawn from the antecubital vein from healthy volunteers after written informed consent in accordance with local and federal guidelines with approval of the local review board (Ethikkommission, Klinikum Charité, Sauerbruchweg 5, 10117 Berlin). The blood was mixed with 0.11 mol/L sodium citrate (1:10). For ROTEM® analysis, whole citrated blood was used within 8 h after collection. Platelet-rich plasma (PRP) was prepared from citrated blood by centrifugation at 330×g for 10 min at room temperature, platelet-poor plasma (PPP) was collected following centrifugation at 1220×g for 12 min. The PRP was then adjusted to 3×10^8 platelets per mL using the autologous PPP. PRP was maintained at room temperature for less than 4 h before analysis. The remaining PPP was subjected to a high-speed centrifugation at 40,000×g for 30 min at 4° C. to remove any particulate material and was then stored at −70° C. until use.
The antifibrinolytic activity of Compound No. 3 in comparison to aprotinin and tranexamic acid was investigated in plasma and whole blood assays. In both assays, tissue factor was added to initiate rapid clot formation via the extrinsic pathway which produces a clot that remains stable for several hours under normal conditions. Supplementation of plasma or whole blood with tissue-type plasminogen activator (t-PA) before stimulation results in activation of endogenous plasminogen and thus fibrinolysis while the initial clot formation is not impaired. […] A final concentration of 50 U/mL and 100 U/mL in plasma and whole blood, respectively, was chosen to achieve complete lysis within about 60 min. In the presence of antifibrinolytics, clot lysis is delayed in a concentration-dependent manner.
Fibrinolysis in whole blood was studied with rotational thromboelastometry (Luddington, Clin. Lab. Haematol. 27: 81-90, 2005) using a computerized, multi-channel ROTEM® instrument (Pentapharm, Munich, Germany) (Ganter et al., Anesth. Analg. 106: 1366-75, 2008). Activation of test samples accelerated the measurement process and enhanced reproducibility compared with conventional thromboelastography. To allow observation of fibrinolysis, ROTEM® analysis with tissue factor activation (EXTEM) was modified through addition of t-PA (Nielsen et al. Blood Coagul. Fibrinolysis 17: 75-81, 2006). Citrated blood was pre-incubated at 37° C. for 5 min with test compound or saline before tissue factor, CaCl2 and t-PA (100 U/mL final concentration) were added to start the reaction. Fibrinolysis was determined by measuring loss of clot strength with time and was recorded as Ly60 (percentage reduction of the maximum amplitude at 60 min after the onset of clotting). In control samples without inhibitor, clots were lysed completely within 60 min, such that Ly60 was above 90%. By plotting Ly60 versus test compound concentration, IC50 values for each compound were calculated.

The nature of data set [2]: Terminal half-life in dogs. As to conditions: dog, in vivo.
Data set [3] concerns thrombin generation in platelet-rich human plasma. Briefly: Thrombin generation assay (Technothrombin TGA). As to conditions: 100 to 1000 nM, intrinsic and extrinsic activation. It is filed as cell-based. The method, then:
as §1
The impact of Compound No. 3 and aprotinin on thrombin generation was studied in PRP using the commercially available Technothrombin® TGA kit (Technoclone, Vienna, Austria). This method allows assessment of the dynamics of thrombin generation, i.e. initiation, propagation, and inactivation phases, including the contribution of platelet function to the clotting process (Hemker et al., Pathophysiol. Haemost. Thromb. 33: 4-15, 2003). PRP was spiked with test compounds at different concentrations and pre-warmed to 37° C. in a black 96-well flat-bottom plate (Nunc, Wiesbaden, Germany). Thrombin generation was then initiated by adding a mixture of activator and fluorogenic thrombin substrate. […] Starting immediately after addition of reagents, fluorescence was recorded every 60 s for 120 min using the BMG POLARstar microplate reader (BMG Labtech, Offenburg, Germany) set at 390 nm excitation and 460 nm emission maintaining a temperature of 37° C. […] A typical thrombin generation curve is generated by plotting the first derivative (dF/dt) of the original fluorescence versus time curve and comparing it to a standard run containing known amounts of thrombin in buffer. […]

The test system of data set [4] is coagulation in human plasma (PPP). Briefly: Plasma coagulation times (prothrombin time, activated partial thromboplastin time). It is filed as biochemical. As to conditions: for plasma coagulation times (prothrombin time, activated partial thromboplastin time): 100 to 1000 nM. An excerpt:
Since Compound No. 3 inhibits multiple proteases of the coagulation system, we investigated possible anticoagulant properties using established tests in vitro. Whereas tissue factor is the physiologic trigger of coagulation, both extrinsic and contact-mediated stimulation contribute to hemostatic activation under conditions like CPB (Boisclair et al. Blood 82: 3350-7, 1993 and Edmunds et al., Ann. Thorac. Surg. 82: 2315-22, 2006). We therefore studied the impact of Compound No. 3 and aprotinin on coagulation in plasma and whole blood following both intrinsic and extrinsic stimulation. Tranexamic acid has no influence on other proteases than plasminogen and, therefore, is not included in these experiments.
Prothrombin time and activated partial thromboplastin time were determined after human plasma (PPP) was supplemented with test compound solution or saline using a conventional coagulation analyzer (Sysmex CA-560, Dade Behring). Reagents used were Innovin® (extrinsic activator containing tissue factor) for prothrombin time and Actin® FSL (contact activator containing ellagic acid and phospholipids) for activated partial thromboplastin time, both from Dade Behring (Eschborn, Germany).

Setting [5] is: human whole blood, t-PA 100 U/mL.
[6] abbreviates: higher aprotinin concentrations (data not shown).

The term half-life denotes the time needed for the level to fall by half in the phase considered. Read a low half-life as rapid decline.

On to `N=C(N)c1ccc(CNC(=O)[C@H](Cc2cccc(CN)c2)NC(=O)[C@@H](CCCc2ccccc2)NS(=O)(=O)Cc2cccc(C(=O)O)c2)cc1` [compound 3, 3-HOOC-Bzls-d-Ppg-Phe(3-Ame)-4-Amba×2 acetate], for which, in data set [1] (setting [5]), the IC50 came out at 0.15 µM. Further, the “concentration that largely suppresses clot lysis / effective inhibition” value in data set [1] (whole blood ROTEM, t-PA-induced lysis) worked out at 600 nM. Moreover, the “potency at inhibiting clot lysis relative to tranexamic acid” value in data set [1] is approximately 10 fold. In data set [2], this compound displayed a half-life of 20 min. For the same compound, in data set [3], the endogenous thrombin potential result is “no impact”, the “onset of thrombin generation” value is “concentration-dependent delay” and the peak thrombin level result is listed as “reduction”. In addition, the “plasma coagulation times (prothrombin time, activated partial thromboplastin time)” value in data set [4] is recorded as “significant prolongation”.
As for aprotinin, the IC50 in data set [1] (setting [5]) was 0.345 µM. For the same compound, the “IC50 of clot lysis expressed in KIU/mL” value in data set [1] (human whole blood, t-PA 100 U/mL, converted from nM) worked out at 16 KIU/mL. For the same compound, in data set [1], the “potency at inhibiting clot lysis relative to tranexamic acid” value is on record as approximately 10 fold. Further, the “plasma coagulation times (prothrombin time, activated partial thromboplastin time)” value in data set [4] is on record as “almost no influence”. In data set [4] (setting [6]), the “activated partial thromboplastin time” value is given as “marked prolongation” and the extrinsic coagulation result is recorded as “not affected”.

Values taken from patent US8410310B2, “Trypsin-like serine protease inhibitors, and their preparation and use” (The Medicines Company (Leipzig) GmbH, priority 2006, dated 2013).
